Measurements taken from patent US10544113B2 (priority 2016, dated 2020).
Like-named read-outs stand apart in the source and are kept apart here.

Assays:
B6 mice = experiment: Tail-flick test; type: in vivo, mouse; set-up: key to Activity of tail-flick test: ++: 25 mg/kg (intravenous) or 50 nmol (intrathecal) active; +: 100 mg/kg (intravenous) active; details: mice; compound given intravenous or intrathecal
Description: In an exemplary in vivo method, a test compound and a MOR antagonist are injected into a mouse pain model (for example, intravenous but not limited), basal latencies are recorded before the treatment and test latencies are recorded at various specified times after the injection, and a time-response curve is recorded and AUC values are calculated to determine whether an analgesic effect is exerted on the mouse. The test compound is confirmed to be an antagonist-to-agonist allosteric modifier of the MOR upon observation of an analgesic effect.
Male wild-type (WT) B6 mice (25-30 g) were kept in a temperature-controlled animal room with a 12-h light/dark cycle. The protocol has been approved by the Institutional Animal Care and Use Committee of the National Health Research Institutes, Taiwan. Animal experiments were carried out in accordance with the Policies on the Use of Animals in Neuroscience Research and the ethical guidelines for investigations of experimental pain in conscious animals, International Association for the Study of Pain. Tail-Flick Analgesia Meter (Columbia Instruments) was used to measure the tail-flick latencies of mice. The cut-off time for each measurement was 10 s to avoid tissue damage. Basal latencies were recorded before treatment and test latencies were recorded 30, 60, 90, 120 and 180 min after an intravenous injection of drugs. […] ED50 values were determined by the up-and-down method reported in Crocker et al., Pharmacol Biochem Behav, 1984, 21, 133-136.
An in vivo study, i.e., tail-flick test, was performed to investigate whether AAMs could change innate character of μ-opioid receptor in the presence of naloxone. […] In mice injected with naloxone (10 mg/kg; s.c.), the ED50 value of compound 58 in inhibition of the tail-flick response was determined to be 23.1±7.1 nmole.

DOR = experiment: cAMP assay (adenylyl cyclase inhibition) in HEK-DOR cells; type: cell-based
Description: Human embryonic kidney 293 (HEK-293) cells constitutively expressing MOR (HEK-MOR) and DOR (HEK-DOR) (kindly provided by Dr. Ping-Yee Law, University of Minnesota, USA) were cultured in high-glucose Dulbecco's modified Eagle's medium (DMEM, GIBCO) supplemented with 400 μg/mL G418 (Sigma), 2 mM L-glutamine and P/S/F (100 units/mL penicillin, 100 μg/mL streptomycin, 10% fetal bovine serum). Chinese hamster ovary (CHO)-K1 cells, stably expressing hMOR and Gα15 (CHO-K1/MOR/Gα15), were cultured in F12 medium (GIBCO) supplemented with 10 μg/mL Hygromycin B (Invivogen), 20 μg/mL Zeocin (Invivogen) P/S/F (100 units/mL penicillin, 100 μg/mL streptomycin, 10% fetal bovine serum). The cultures were incubated at 37° C. in a humidified 5% CO2 incubator.
Briefly, 2000 HEK-MOR cells or HEK-DOR cells were plated in 10 μL/well of DMEM in 96-well solid bottom white plates and 10 μL/well compound in HBSS in the presence with 1 μM forskolin and 100 μM 3-isobutyl-1-methylxanthine (IBMX). After 30 minutes of incubation at room temperature, 10 μL/well of labeled d2-cAMP and 10 μL/well of anti-cAMP antibody (both diluted in lysis buffer) were added to each well. Two hours later, plates were measured using the FlexStationIII (Molecular Devices Corp.) with excitation at 330 nm and emissions of 620 nm and 665 nm.
To characterize of novel opioid receptor AAMs, the activity and selectivity of compound 58 were tested by inhibiting adenylyl cyclase activity (i.e., cAMP assay).
Opoid receptors inhibit adenylyl cyclase activity through Gi/o family of heterotrimeric G proteins. A cAMP-accumulation assay was performed to determine whether opioid receptor AAMs affect a G protein-dependent signaling pathway.

mu-opioid receptor (MOR) = mu-opioid receptor (MOR) (Homo sapiens (Human), UniProt P35372); experiment: cell-based; details: combined with a MOR antagonist; for AUC: AUC of [Ca2+]i fluorescence, CHO-K1/MOR/Gα15 cells
Chain of mu-opioid receptor (MOR) (P35372 whole entry): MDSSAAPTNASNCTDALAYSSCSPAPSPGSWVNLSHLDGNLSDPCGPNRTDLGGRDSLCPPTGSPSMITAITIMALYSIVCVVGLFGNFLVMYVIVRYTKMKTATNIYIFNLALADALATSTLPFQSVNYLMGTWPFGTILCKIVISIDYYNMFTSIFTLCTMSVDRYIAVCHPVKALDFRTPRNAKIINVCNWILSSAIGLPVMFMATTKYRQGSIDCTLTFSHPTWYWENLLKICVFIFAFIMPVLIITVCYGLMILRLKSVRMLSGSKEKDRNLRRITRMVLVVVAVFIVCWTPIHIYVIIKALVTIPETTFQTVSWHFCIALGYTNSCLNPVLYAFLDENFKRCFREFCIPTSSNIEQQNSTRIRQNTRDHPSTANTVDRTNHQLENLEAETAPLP

Molecule | FLIPR Ca^2+ AUC (mu-opioid receptor (MOR)) | EC50 (mu-opioid receptor (MOR); read-out: FLIPR Ca^2+ EC50) [µM] | AUC (mu-opioid receptor (MOR)) | EC50 (mu-opioid receptor (MOR); EC50, CHO-K1/MOR/Gα15 cells) [µM] | also measured
N-Cyclobutyl-4-[2-(4-fluorophenyl)-4-oxo-1, 3-thiazolidin-3-yl]-3-methylbenzamide [Example 255] |  |  |  |  | Activity of tail-flick test (B6 mice): +
[D-Pen(2),D-Pen(5)]-enkephalin [DPDPE] |  |  |  |  | cAMP-inhibition response (DOR; % of forskolin-stimulated (1 μM) cAMP accumulation): 60%; EC50 (DOR; agonist alone): 0.0005 µM
Cc1cc(C(=O)NCCc2cccc(F)c2)ccc1N1C(=O)CSC1c1ccc(F)cc1 (centres unmarked) [Example 385] | 7501 | 3.9 |  |  | 
Cc1ccc(S(=O)(=O)NC(=O)c2ccc(N3C(=O)CSC3c3ccc(F)cc3)c(C)c2)cc1 (centres unmarked) [Example 185] | 18048 | 0.6 |  |  | 
Cc1cc(C(=O)NCc2ccccc2)ccc1N1C(=O)CSC1c1ccc(F)cc1 (centres unmarked) [Example 374] | 6726 | 5.1 | more than 5000 |  | 
COc1c(F)cc(F)cc1N1C(=O)CSC1c1ccc(F)cc1 (centres unmarked) [Example 11, 3-(3,5-Difluoro-2-methoxyphenyl)-2-(4-fluorophenyl)thiazolidin-4-one] |  |  |  | < 10 | 
CC(C)(C)c1cc(N2C(=O)CSC2c2ccc(F)cc2)no1 (centres unmarked) [Example 640, 3-(5-tert-Butyl-1,2-oxazol-3-yl)-2-(4-fluorophenyl)-1,3-thiazolidin-4-one] | 9872 | 14.2 | more than 5000 |  | 
Cc1cc(C(=O)OC2(C)CC2)ccc1N1C(=O)CSC1c1ccc(F)cc1 (centres unmarked) [Example 236] | 13348 | 4.7 |  |  | 
COc1cc(C(=O)O)ccc1N1C(=O)CSC1c1ccc(F)cc1 (centres unmarked) [Example 12, 4-[2-(4-Fluoro-phenyl)-4-oxo-thiazolidin-3-yl]-3-methoxy-benzoic acid] | 12252 | 10.6 |  |  | 
[2H]C1(c2ccc(F)cc2)SCC(=O)N1c1ccc(C(=O)O)cc1C (centres unmarked) [Example 581, 4-[2-(4-Fluorophenyl)-4-oxo-2-d1-1,3-thiazolidin-3-yl]-3-methylbenzoic acid] | 13703 | 3.31 |  |  | 
CC(=O)Nc1ccc(S(=O)(=O)NC(=O)c2ccc(N3C(=O)CSC3c3ccc(F)cc3)c(C)c2)cc1 (centres unmarked) [Example 202] | 17087 | 0.6 | more than 5000 | < 10 | 
Cc1cc(C(=O)OCCOCCN(C)C)ccc1N1C(=O)CSC1c1ccc(F)cc1 (centres unmarked) [Example 306] | 7531 | 6.2 | more than 5000 | < 10 | 
Cc1cc(C(=O)OCCN2CCOCC2)ccc1N1C(=O)CSC1c1ccc(F)cc1 (centres unmarked) [Example 296] | 14052 | 2.3 |  |  | 
Cc1cc(C(=O)N2CCC(N)CC2)ccc1N1C(=O)CSC1c1ccc(F)cc1 (centres unmarked) [Example 357] | 12663 | 10 |  | < 10 | 
CCOC(=O)OC(C)OC(=O)c1ccc(N2C(=O)CSC2c2ccc(F)cc2)c(C)c1 (centres unmarked) [Example 313, 3-(1,5-Dimethyl-3-oxo-2-phenyl-2,3-dihydro-1H-pyrazol-4-yl)-2-(4-(methylthi)phenyl)thiazolidin-4-one] |  |  |  | < 10 | 
COC(=O)c1ccc(N2C(=O)CSC2c2ccoc2)c(C)c1 (centres unmarked) [Example 416] | 6514 | 11.7 | more than 5000 |  | 
Cc1cc(C(=O)O)ccc1N1C(=O)CSC1c1cc(F)cc(F)c1 (centres unmarked) [Example 64] | 9368 | 6 | more than 5000 | < 10 | 
CCSCCOC(=O)c1ccc(N2C(=O)CSC2c2ccc(F)cc2)c(C)c1 (centres unmarked) [Example 271] | 11997 | 14 |  |  | 
COCCCOC(=O)c1ccc(N2C(=O)CSC2c2ccc(F)cc2)c(C)c1 (centres unmarked) [Example 267] | 15960 | 6.4 |  |  | 
CCONC(=O)c1ccc(N2C(=O)CSC2c2ccc(F)cc2)c(C)c1 (centres unmarked) [Example 215] | 10945 | 4.1 |  |  | 
Cc1cc(C2SCC(=O)N2c2ccc(C(=O)O)cc2C)ccc1F (centres unmarked) [Example 68] | 7951 | 6.4 | more than 5000 | < 10 | 
Cc1cc(C(=O)N(C)C)ccc1N1C(=O)CSC1c1ccc(F)cc1 (centres unmarked) [Example 332] |  |  |  | < 10 | 
COCCOCCS(=O)(=O)NC(=O)c1ccc(N2C(=O)CSC2c2ccc(F)cc2)c(C)c1 (centres unmarked) [Example 597, 4-[2-(4-Fluorophenyl)-4-oxo-1,3-thiazolidin-3-yl]-N-{[2-(2-methoxyethoxy)ethyl]sulfonyl}-3-methylbenzamide] | 10720 | 1.12 | more than 5000 | < 10 | 
